Patent publication US9133158B2, “Bicyclic dihydroisoquinoline-1-one derivatives” (Hoffmann-La Roche Inc., priority 2011, dated 2015)

Assays:
human CYP11B2 = molecular target: T1, human CYP11B2 (Homo sapiens, UniProt P19099); assay: G-402 cellular enzyme assay, human CYP11B2 (aldosterone release, HTRF); format: cell-based; details: G-402 cells, 1 μM Deoxycorticosterone
T1 construct: expressed in transfected cells
T1 sequence (P19099 25-503): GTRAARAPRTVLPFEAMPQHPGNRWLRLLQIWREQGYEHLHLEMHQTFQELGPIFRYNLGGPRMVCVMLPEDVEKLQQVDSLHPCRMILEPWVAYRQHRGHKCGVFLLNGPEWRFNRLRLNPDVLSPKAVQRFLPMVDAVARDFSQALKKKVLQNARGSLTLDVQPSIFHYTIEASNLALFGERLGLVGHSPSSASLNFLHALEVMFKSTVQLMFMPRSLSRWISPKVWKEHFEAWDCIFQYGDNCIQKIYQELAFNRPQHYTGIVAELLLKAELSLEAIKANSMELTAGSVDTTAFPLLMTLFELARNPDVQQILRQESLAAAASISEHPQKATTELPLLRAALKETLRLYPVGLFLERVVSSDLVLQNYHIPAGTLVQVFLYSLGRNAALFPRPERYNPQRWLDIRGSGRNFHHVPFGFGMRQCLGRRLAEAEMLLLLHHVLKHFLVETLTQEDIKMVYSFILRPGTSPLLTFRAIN
In short: (§1)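 G-402 cells stably expressing human CYP11B1 or CYP11B2, in DMEM/F12 with 2.5% charcoal-treated FCS, were incubated 16 h with test compound and substrate (1 μM 11-deoxycortisol for CYP11B1; 1 μM deoxycorticosterone for CYP11B2). Cortisol or aldosterone in supernatant was quantified by HTRF; EC50 from 4-parameter MMF fit.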

human CYP11B1 = molecular target: T2, human CYP11B1 (Homo sapiens, UniProt P15538); assay: G-402 cellular enzyme assay, human CYP11B1 (cortisol release, HTRF); format: cell-based; details: G-402 cells, 1 μM Deoxycortisol
T2 construct: expressed in transfected cells
T2 sequence (P15538 25-503): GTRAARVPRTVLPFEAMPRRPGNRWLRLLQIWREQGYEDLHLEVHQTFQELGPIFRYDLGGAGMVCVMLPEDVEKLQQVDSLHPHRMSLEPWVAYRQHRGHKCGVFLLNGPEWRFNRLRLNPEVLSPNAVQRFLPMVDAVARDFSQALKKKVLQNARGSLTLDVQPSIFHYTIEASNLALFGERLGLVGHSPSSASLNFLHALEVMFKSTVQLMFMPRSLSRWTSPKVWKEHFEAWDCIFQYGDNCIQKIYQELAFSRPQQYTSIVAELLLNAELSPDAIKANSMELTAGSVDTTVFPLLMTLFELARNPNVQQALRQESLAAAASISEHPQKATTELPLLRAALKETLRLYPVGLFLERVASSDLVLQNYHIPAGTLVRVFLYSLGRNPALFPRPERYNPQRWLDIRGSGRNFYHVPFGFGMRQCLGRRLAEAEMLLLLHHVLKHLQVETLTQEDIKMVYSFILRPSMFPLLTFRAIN
In short: as §1

EC50 (human CYP11B2) [nM]	EC50 (human CYP11B1) [nM]	Structure (SMILES)
127	6310	COC(C)c1ccncc1N1CCc2cc(Cl)ccc2C1=O (centres unmarked) [Example 64, 6-Chloro-2-[4-(1-methoxy-ethyl)-pyridin-3-yl]-3,4-dihydro-2H-isoquinolin-1-one]
13.5	251	O=C1c2ccc(Cl)cc2CCN1c1cncc2ccccc12 [Example 73, 6-Chloro-3,4-dihydro-[2,4′]biisoquinolinyl-1-one]
24	3160	COc1ccc2c(n1)C(C)(C)N(c1cncc(CNc3cc[nH]n3)c1)C2=O [Example 384, 2-Methoxy-7,7-dimethyl-6-{5-[(1H-pyrazol-3-ylamino)-methyl]-pyridin-3-yl}-6,7-dihydro-pyrrolo[3,4-b]pyridin-5-one]
318	12900	CCC(=O)NC1CCCc2c1cncc2N1CCc2cc(Cl)ccc2C1=O (centres unmarked) [Example 29, N-(6-Chloro-1-oxo-3,4,5′,6′,7′,8′-hexahydro-1H-[2,4′]biisoquinolinyl-8′-yl)-propionamide]
6.1	34.4	CC(Nc1ccccc1)c1cncc(N2CCc3cc(Cl)ccc3C2=O)c1 (centres unmarked) [Example 278, 6-Chloro-2-[5-(1-phenylamino-ethyl)-pyridin-3-yl]-3,4-dihydro-2H-isoquinolin-1-one]
20.1	217	COCc1cncc(N2CCc3cc(Cl)ccc3C2=O)c1 [Example 193, 6-Chloro-2-(5-methoxymethyl-pyridin-3-yl)-3,4-dihydro-2H-isoquinolin-1-one]
26.8	1740	CC1(C)c2cc(Cl)ccc2C(=O)N1c1cncc(OC2CN(S(C)(=O)=O)C2)c1 [Example 452, 5-Chloro-2-[5-(1-methanesulfonyl-azetidin-3-yloxy)-pyridin-3-yl]-3,3-dimethyl-2,3-dihydro-isoindol-1-one]
161	32500	O=C1c2ccc(Cl)cc2C(C2CC2)N1c1cccnc1 (centres unmarked) [Example 301, 5-Chloro-3-cyclopropyl-2-pyridin-3-yl-2,3-dihydro-isoindol-1-one]
34.2	2210	CC1(C)c2cc(C#N)ccc2C(=O)N1c1cncc(CNS(C)(=O)=O)c1 [Example 402, N-[5-(6-Cyano-1,1-dimethyl-3-oxo-1,3-dihydro-isoindol-2-yl)-pyridin-3-ylmethyl]-methane-sulfonamide]
23.2	211	O=C1c2ccc(Cl)cc2CCN1c1cncc(Cn2ccc3c(F)cccc32)c1 [Example 186, 6-Chloro-2-[5-(4-fluoro-indol-1-ylmethyl)-pyridin-3-yl]-3,4-dihydro-2H-isoquinolin-1-one]
853	16100	CCC(=O)N[C@H]1CCCc2c1cncc2N1C(=O)c2ccc(Cl)cc2[C@H]1C (single isomer, unassigned) [Example 360, N-[(S or R)-4-((R or S)-5-Chloro-3-methyl-1-oxo-1,3-dihydro-isoindol-2-yl)-5,6,7,8-tetrahydro-isoquinolin-8-yl]-propionamide]
204	9850	COc1ccc2c(n1)C(C)(C)N(c1cncc(F)c1)C2=O [Example 294, 6-(5-Fluoro-pyridin-3-yl)-2-methoxy-7,7-dimethyl-6,7-dihydro-pyrrolo[3,4-b] pyridin-5-one]
3220	7600	O=C(Nc1cncc(N2CCc3cc(Cl)ccc3C2=O)c1)c1ccc(F)cc1 [Example 249, N-[5-(6-Chloro-1-oxo-3,4-dihydro-1H-isoquinolin-2-yl)-pyridin-3-yl]-4-fluoro-benzamide]
813	6480	NC1CCCc2c1cncc2N1Cc2cc(Cl)ccc2C1=O (centres unmarked) [Example 311, 2-(8-Amino-5,6,7,8-tetrahydro-isoquinolin-4-yl)-5-chloro-2,3-dihydro-isoindol-1-one]
2800	7610	COC(=O)COc1cncc(N2CCc3cc(Cl)ccc3C2=O)c1 [Example 255, [5-(6-Chloro-1-oxo-3,4-dihydro-1H-isoquinolin-2-yl)-pyridin-3-yloxy]-acetic acid methyl ester]
389	15400	CCC1c2ccc(Cl)cc2C(=O)N1c1cncc(F)c1 (single isomer, unassigned) [Example 307, (S or R)-6-Chloro-3-ethyl-2-(5-fluoro-pyridin-3-yl)-2,3-dihydro-isoindol-1-one]

EC50 (human CYP11B2) [nM]	EC50 (human CYP11B1) [nM]	Structure (SMILES)
38.1	364	O=C1c2ccc(Cl)cc2CCN1c1cncc(Cc2ccc(Cl)c(Cl)c2)c1 [Example 216, 6-Chloro-2-[5-(3,4-dichloro-benzyl)-pyridin-3-yl]-3,4-dihydro-2H-isoquinolin-1-one]
442	7390	N#Cc1cncc(N2CCc3cc(Cl)ccc3C2=O)c1 [Example 2, 5-(6-Chloro-1-oxo-3,4-dihydro-1H-isoquinolin-2-yl)-nicotinonitrile]
42.3	180	CC(O)c1cncc(N2C(=O)c3ccc(Cl)cc3C2C)c1 (centres unmarked) [Example 122, 5-Chloro-2-[5-(1-hydroxy-ethyl)-pyridin-3-yl]-3-methyl-2,3-dihydro-isoindol-1-one]
171	2330	CC(=O)N[C@H]1CCCc2c1cncc2N1C(=O)c2ccc(Cl)cc2[C@H]1C (single isomer, unassigned) [Example 363, N-[(S or R)-4-((R or S)-5-Chloro-3-methyl-1-oxo-1,3-dihydro-isoindol-2-yl)-5,6,7,8-tetrahydro-isoquinolin-8-yl]-acetamide]
154	11100	Cc1cc(-c2cncc(N3CCc4cc(Cl)ccc4C3=O)c2)n(C)n1 [Example 422, 6-Chloro-2-[5-(2,5-dimethyl-2H-pyrazol-3-yl)-pyridin-3-yl]-3,4-dihydro-2H-isoquinolin-1-one]
352	11200	O=C1OCCN1Cc1cncc(N2CCc3cc(Cl)ccc3C2=O)c1 [Example 157, 6-Chloro-2-[5-(2-oxo-oxazolidin-3-ylmethyl)-pyridin-3-yl]-3,4-dihydro-2H-isoquinolin-1-one]
45.1	139	O=C1c2ccc(Cl)cc2CCN1c1cncc(CN2CC[C@H](O)C2)c1 [Example 148, 6-Chloro-2-[5-((S)-3-hydroxy-pyrrolidin-1-ylmethyl)-pyridin-3-yl]-3,4-dihydro-2H-isoquinolin-1-one]
217	1970	Cc1nc2ccccc2n1Cc1cncc(N2CCc3cc(Cl)ccc3C2=O)c1 [Example 181, 6-Chloro-2-[5-(2-methyl-benzoimidazol-1-ylmethyl)-pyridin-3-yl]-3,4-dihydro-2H-isoquinolin-1-one]
19.6	772	CC1(C)c2cc(Cl)ccc2C(=O)N1c1cncc(CN2CCNC2=O)c1 [Example 411, 5-Chloro-3,3-dimethyl-2-[5-(2-oxo-imidazolidin-1-ylmethyl)-pyridin-3-yl]-2,3-dihydro-isoindol-1-one]
187	2000	CCOC(=O)c1nccn1Cc1cncc(N2CCc3cc(Cl)ccc3C2=O)c1 [Example 162, 1-[5-(6-Chloro-1-oxo-3,4-dihydro-1H-isoquinolin-2-yl)-pyridin-3-ylmethyl]-1H-imidazole-2-carboxylic acid ethyl ester]
674	12000	O=C1CCCN1Cc1cncc(N2Cc3cc(Cl)ccc3C2=O)c1 [Example 112, 5-Chloro-2-[5-(2-oxo-pyrrolidin-1-ylmethyl)-pyridin-3-yl]-2,3-dihydro-isoindol-1-one]
3.2	122	O=C1c2ccc(Cl)cc2C2(CC2)N1c1cncc(OC(F)F)c1 [Example 291, 6′-Chloro-2′-[5-(difluoromethoxy)pyridin-3-yl]spiro[cyclo-propane-1,1′-isoindol]-3′(2′H)-one]
117	4740	O=Cc1cncc(N2CCc3cc(Cl)ccc3C2=O)c1 [Example 9, 5-(6-Chloro-1-oxo-3,4-dihydro-1H-isoquinolin-2-yl)-pyridine-3-carbaldehyde]
272	3970	CCS(=O)(=O)NCc1cncc(N2C(=O)c3ccc(F)cc3C2(C)C)c1 [Example 388, Ethanesulfonic acid [5-(6-fluoro-1,1-dimethyl-3-oxo-1,3-dihydro-isoindol-2-yl)-pyridin-3-ylmethyl]-amide]
7.1	39	Cc1ccncc1N1C(=O)c2ccc(Cl)cc2C1C (centres unmarked) [Example 121, 5-Chloro-3-methyl-2-(4-methyl-pyridin-3-yl)-2,3-dihydro-isoindol-1-one]
